Source: patent US20050222102A1, “Treatment of rhinitis with anticholinergics alone or in combination with antihistamines, phosphodiesterase 4 inhibitors, or corticosteroids” (Sofotec GmbH & Co. KG, priority 2004, published 2005)
Structures can show the parent of a compound that is named as a salt.

Key:
[1] = tested on: experimental allergic rhinitis models; assay: experimental allergic rhinitis models; assay type: in vivo; conditions: for side-effects: compared with expectation; for reduction in the watery secretion: compared with what is typical for anticholinergic agents
[2] = in vivo, po
[3] = tested on: animal models of asthma and rhinitis; assay: animal models of asthma and rhinitis; conditions: in vivo
water solubility = assay type: physicochemical

Row | SMILES | side-effects [1] | reduction in the watery secretion [1] | emesis and signs of nausea [2] | effectiveness in animal models of asthma and rhinitis [3] | water solubility (water solubility)
1 | C[N+]1(C)CCC(OC(=O)C(O)(c2ccccc2)C2CCCC2)C1 (racemic) [glycopyrrolate] | lower side-effects than expected | longer-lasting reduction in the watery secretion | – | – | –
2 | C[N+]1(C)CC[C@@H](OC(=O)[C@](O)(c2ccccc2)C2CCCC2)C1.[Br-] (single isomer, unassigned) [R,R-isomer, R,R-glycopyrrolate] | lower side-effects than expected | longer-lasting reduction in the watery secretion | – | – | –
3 | O=C(Nc1c(Cl)cncc1Cl)C(=O)c1cn(Cc2ccc(F)cc2)c2ccc(O)cc12 [AWD 12-281] | – | – | devoid of emesis and signs of nausea | highly effective | –
4 | CN1CCCC(n2nc(Cc3ccc(Cl)cc3)c3ccccc3c2=O)CC1 (stereo not shown) [azelastine hydrochloride] | – | – | – | – | sufficient
